We go through one molecule from ChEMBL document CHEMBL6109147, “Discovery of Potent STING Inhibitors Bearing a Difluorobenzodioxol Structural Motif as Potent Anti-Inflammatory Agents” (J Med Chem, 2025).

A short description of data set [1]: AUC (0 to infinity) in Sprague-Dawley rat at 1 mg/kg, iv. The data set is classed as ADME, organism-based. Conditions: in vivo.
Data set [2] is described as follows: Metabolic stability in mouse liver microsomes assessed as half life. The data set is classed as ADME, Microsome.
The target in data set [3] is T1, Stimulator of interferon genes protein (Mus musculus) (UniProt Q3TBT3).
T1 sequence (whole entry): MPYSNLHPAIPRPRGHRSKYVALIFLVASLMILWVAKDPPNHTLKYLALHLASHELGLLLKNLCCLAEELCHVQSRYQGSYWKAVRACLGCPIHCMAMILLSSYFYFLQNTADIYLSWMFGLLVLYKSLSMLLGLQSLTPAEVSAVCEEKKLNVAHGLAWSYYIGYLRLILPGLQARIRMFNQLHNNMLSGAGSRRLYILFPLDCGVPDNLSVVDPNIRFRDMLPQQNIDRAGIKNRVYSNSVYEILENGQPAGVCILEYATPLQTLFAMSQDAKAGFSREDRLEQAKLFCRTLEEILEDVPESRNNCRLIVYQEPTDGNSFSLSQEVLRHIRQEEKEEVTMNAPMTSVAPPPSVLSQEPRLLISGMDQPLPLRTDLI
Kind of data set: Inhibition of STING in mouse […] ISG cells assessed as reduction in MSA-2-induced secreted luciferase reporter of interferon stimulated gene (ISG) measured after 24 hrs incubation. The format is cell-based. Conditions: RAW-Lucia ISG.

Data set [4] addresses T1, Stimulator of interferon genes protein (Mus musculus). Kind of data set: Inhibition of STING downstream signalling in mouse RAW264.7 cells assessed as inhibition of DMAAA induced Isg56 mRNA level pre-treated for 1 hr followed by stimulated with DMAAA measured after 4 hrs by real-time PCR analysis. The data set is classed as cell-based. The note with it: dose 0.3-3 µM, time 5.0 hrs.

For data set [5], the system named is Mus musculus. Kind of data set: Anti-inflammatory activity against MSA-2 induced C57BL/6 mouse inflammation model assessed as inhibition of MSA-2 induced Isg15 mRNA expression in kidney at 10 mg/kg, ip pre-treated for 1 hr followed by stimulated with MSA-2 for 4 hrs by real-time PCR analysis. The format is functional, organism-based. The note with it: time 5.0 hrs.

The test system of data set [6] is Mus musculus. The data set can be described thus: Anti-inflammatory activity against Cisplatin induced C57BL/6 STING-KO mouse kidney inflammation model assessed as prevention of Cisplatin induced interstitial vacuolation at 5 mg/kg, ip treated for 3 days. The data set is classed as functional, organism-based. The note with it: time 3.0 day.
Data set [7] relates to Mus musculus. Kind of data set: Effect on Isg15 expression in Cisplatin induced C57BL/6 STING-KO mouse kidney inflammation model at 5 mg/kg, ip treated for 3 days by real-time PCR analysis. The format is functional, organism-based. The note with it: time 3.0 day.

Active and inactive are the calls of the source. No cut-off for these calls is given here.

`N#CC/C=C/c1ccc2[nH]cc(NC(=O)Nc3ccc4c(c3)OC(F)(F)O4)c2c1` gave an AUC(0-inf) in data set [1] of 0.196 µg·h/mL. Also, the half-life in data set [2] was 26.7 min. The inhibition result in data set [3] and in data set [4] was “Dose-dependent-effect” each time. For the same molecule, the inhibition result in data set [5] was “Active”. The outcome in data set [6] and in data set [7] was inactive.
